Test results from PubChem BioAssay AID1963421 (Molecular Pharmacology Branch, DTP, NCI, 2024).

System: 519858-162-T-J1-PDC complex spheroid growth, % test/control
Experiment: Anticancer human tumor 519858-162-T-J1-PDC patient-derived colon adenocarcinoma cell line growth inhibition [Asc]
Details: for IC50: curve of first compound; for viability, T/C: stronger effect = lower value
Outline: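 Tumor cells were grown as complex spheroids with human endothelial cells (HUVEC) and human mesenchymal stem cells as stroma. Agents were tested alone and in combination, in half-log steps down from the clinical Cmax, or from 10 microM where Cmax was unknown.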

[1] = second compound 0.00316 µM, first compound 0.0316 µM
[2] = second compound 0.00316 µM, first compound 0.1 µM
[3] = second compound 0.01 µM, first compound 0.0316 µM
[4] = second compound 0.01 µM, first compound 0.1 µM
[5] = second compound 0.0316 µM, first compound 0.0316 µM
[6] = second compound 0.0316 µM, first compound 0.1 µM
[7] = second compound 0.1 µM, first compound 0.0316 µM
[8] = second compound 0.1 µM, first compound 0.1 µM
[9] = second compound 0.316 µM, first compound 0.0316 µM
[10] = second compound 0.316 µM, first compound 0.1 µM
[11] = second compound 1 µM, first compound 0.0316 µM
[12] = second compound 1 µM, first compound 0.1 µM
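Also: seven day drug exposure begun three days after spheroid seeding.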
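For viability, T/C in this document: 100% = DMSO vehicle wells and lower values mean less viable spheroid.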

Cc1nc(N2CCC3(CC2)COC(C)C3N)c(CO)nc1Sc1ccnc(N)c1Cl (stereo unspecified) + CCN1C(C(=O)NC23CCC(C(=O)O)(CC2)CC3)C(c2cccc(Cl)c2F)C2(C(=O)Nc3cc(Cl)ccc32)C12CCCCC2
IC50 (second compound 0.00949 µM): 0.578 µM
IC50 (second compound 0.03 µM): > 3 µM
IC50 (second compound 0.0949 µM): > 3 µM
IC50 (second compound 0.3 µM): > 3 µM
IC50 (second compound 0.949 µM): > 3 µM
IC50 (second compound 3 µM): > 3 µM
viability, T/C (second compound 0.00949 µM, first compound 0.00949 µM): 87%
viability, T/C (second compound 0.00949 µM, first compound 0.03 µM): 91.7%
viability, T/C (second compound 0.00949 µM, first compound 0.0949 µM): 111%
viability, T/C (second compound 0.00949 µM, first compound 0.3 µM): 57.3%
viability, T/C (second compound 0.00949 µM, first compound 0.949 µM): 43.6%
viability, T/C (second compound 0.00949 µM, first compound 3 µM): 45.3%
viability, T/C (second compound 0.03 µM, first compound 0.00949 µM): 85.3%
viability, T/C (second compound 0.03 µM, first compound 0.03 µM): 67%
viability, T/C (second compound 0.03 µM, first compound 0.0949 µM): 101%
viability, T/C (second compound 0.03 µM, first compound 0.3 µM): 85.6%
viability, T/C (second compound 0.03 µM, first compound 0.949 µM): 96%
viability, T/C (second compound 0.03 µM, first compound 3 µM): 63.3%
viability, T/C (second compound 0.0949 µM, first compound 0.00949 µM): 63.2%
viability, T/C (second compound 0.0949 µM, first compound 0.03 µM): 110%
viability, T/C (second compound 0.0949 µM, first compound 0.0949 µM): 70.5%
viability, T/C (second compound 0.0949 µM, first compound 0.3 µM): 66.6%
viability, T/C (second compound 0.0949 µM, first compound 0.949 µM): 73.7%
viability, T/C (second compound 0.0949 µM, first compound 3 µM): 57.5%
viability, T/C (second compound 0.3 µM, first compound 0.00949 µM): 119%
viability, T/C (second compound 0.3 µM, first compound 0.03 µM): 71%
viability, T/C (second compound 0.3 µM, first compound 0.0949 µM): 54.5%
viability, T/C (second compound 0.3 µM, first compound 0.3 µM): 80.6%
viability, T/C (second compound 0.3 µM, first compound 0.949 µM): 47.6%
viability, T/C (second compound 0.3 µM, first compound 3 µM): 52.5%
viability, T/C (second compound 0.949 µM, first compound 0.00949 µM): 67.6%
viability, T/C (second compound 0.949 µM, first compound 0.03 µM): 66.8%
viability, T/C (second compound 0.949 µM, first compound 0.0949 µM): 83.1%
viability, T/C (second compound 0.949 µM, first compound 0.3 µM): 47.4%
viability, T/C (second compound 0.949 µM, first compound 0.949 µM): 73.5%
viability, T/C (second compound 0.949 µM, first compound 3 µM): 59.2%
viability, T/C (second compound 3 µM, first compound 0.00949 µM): 69.5%
viability, T/C (second compound 3 µM, first compound 0.03 µM): 92.5%
viability, T/C (second compound 3 µM, first compound 0.0949 µM): 77.2%
viability, T/C (second compound 3 µM, first compound 0.3 µM): 73.5%
viability, T/C (second compound 3 µM, first compound 0.949 µM): 67%
viability, T/C (second compound 3 µM, first compound 3 µM): 72.5%

Cn1ncnc1[C@H]1c2n[nH]c(=O)c3cc(F)cc(c23)N[C@@H]1c1ccc(F)cc1 + CNC(C)C(=O)NC1CN(S(=O)(=O)c2cccc(S(=O)(=O)N3CCC4CCC(C(=O)NC(c5ccccc5)c5ccccc5)N4C(=O)C(NC(=O)C(C)NC)C3)c2)CCC2CCC(C(=O)NC(c3ccccc3)c3ccccc3)N2C1=O
IC50 (second compound 0.00316 µM): > 0.1 µM
IC50 (second compound 0.01 µM): > 0.1 µM
IC50 (second compound 0.0316 µM): > 0.1 µM
IC50 (second compound 0.1 µM): > 0.1 µM
IC50 (second compound 0.316 µM): > 0.1 µM
IC50 (second compound 1 µM): > 0.1 µM
viability, T/C (second compound 0.00316 µM, first compound 0.000316 µM): 71.1%
viability, T/C (second compound 0.00316 µM, first compound 0.001 µM): 64.9%
viability, T/C (second compound 0.00316 µM, first compound 0.00316 µM): 59.8%
viability, T/C (second compound 0.00316 µM, first compound 0.01 µM): 62.1%
viability, T/C [1]: 60.9%
viability, T/C [2]: 69.1%
viability, T/C (second compound 0.01 µM, first compound 0.000316 µM): 94.7%
viability, T/C (second compound 0.01 µM, first compound 0.001 µM): 94.5%
viability, T/C (second compound 0.01 µM, first compound 0.00316 µM): 113%
viability, T/C (second compound 0.01 µM, first compound 0.01 µM): 86.8%
viability, T/C [3]: 103%
viability, T/C [4]: 78.4%
viability, T/C (second compound 0.0316 µM, first compound 0.000316 µM): 103%
viability, T/C (second compound 0.0316 µM, first compound 0.001 µM): 83%
viability, T/C (second compound 0.0316 µM, first compound 0.00316 µM): 90.3%
viability, T/C (second compound 0.0316 µM, first compound 0.01 µM): 87.5%
viability, T/C [5]: 102%
viability, T/C [6]: 77.6%
viability, T/C (second compound 0.1 µM, first compound 0.000316 µM): 70.6%
viability, T/C (second compound 0.1 µM, first compound 0.001 µM): 78.3%
viability, T/C (second compound 0.1 µM, first compound 0.00316 µM): 83.4%
viability, T/C (second compound 0.1 µM, first compound 0.01 µM): 107%
viability, T/C [7]: 80.9%
viability, T/C [8]: 97.5%
viability, T/C (second compound 0.316 µM, first compound 0.000316 µM): 83.7%
viability, T/C (second compound 0.316 µM, first compound 0.001 µM): 99.3%
viability, T/C (second compound 0.316 µM, first compound 0.00316 µM): 89.4%
viability, T/C (second compound 0.316 µM, first compound 0.01 µM): 97%
viability, T/C [9]: 64.3%
viability, T/C [10]: 83.6%
viability, T/C (second compound 1 µM, first compound 0.000316 µM): 92.6%
viability, T/C (second compound 1 µM, first compound 0.001 µM): 76.3%
viability, T/C (second compound 1 µM, first compound 0.00316 µM): 83.3%
viability, T/C (second compound 1 µM, first compound 0.01 µM): 71.3%
viability, T/C [11]: 90.6%
viability, T/C [12]: 78.1%

O=C(c1cc(Cc2n[nH]c(=O)c3ccccc23)ccc1F)N1CCN(C(=O)C2CC2)CC1 + CNC(C)C(=O)NC1CN(S(=O)(=O)c2cccc(S(=O)(=O)N3CCC4CCC(C(=O)NC(c5ccccc5)c5ccccc5)N4C(=O)C(NC(=O)C(C)NC)C3)c2)CCC2CCC(C(=O)NC(c3ccccc3)c3ccccc3)N2C1=O
IC50 (second compound 0.00316 µM): > 10 µM
IC50 (second compound 0.01 µM): > 10 µM
IC50 (second compound 0.0316 µM): > 10 µM
IC50 (second compound 0.1 µM): > 10 µM
IC50 (second compound 0.316 µM): > 10 µM
IC50 (second compound 1 µM): > 10 µM
viability, T/C [1]: 61.5%
viability, T/C [2]: 57.1%
viability, T/C (second compound 0.00316 µM, first compound 0.316 µM): 55%
viability, T/C (second compound 0.00316 µM, first compound 1 µM): 66.5%
viability, T/C (second compound 0.00316 µM, first compound 3.16 µM): 72.8%
viability, T/C (second compound 0.00316 µM, first compound 10 µM): 65.1%
viability, T/C [3]: 127%
viability, T/C [4]: 98.8%
viability, T/C (second compound 0.01 µM, first compound 0.316 µM): 103%
viability, T/C (second compound 0.01 µM, first compound 1 µM): 89.4%
viability, T/C (second compound 0.01 µM, first compound 3.16 µM): 114%
viability, T/C (second compound 0.01 µM, first compound 10 µM): 87%
viability, T/C [5]: 96.9%
viability, T/C [6]: 73.4%
viability, T/C (second compound 0.0316 µM, first compound 0.316 µM): 91.3%
viability, T/C (second compound 0.0316 µM, first compound 1 µM): 91.1%
viability, T/C (second compound 0.0316 µM, first compound 3.16 µM): 84.5%
viability, T/C (second compound 0.0316 µM, first compound 10 µM): 88.3%
viability, T/C [7]: 97.9%
viability, T/C [8]: 83.2%
viability, T/C (second compound 0.1 µM, first compound 0.316 µM): 89.7%
viability, T/C (second compound 0.1 µM, first compound 1 µM): 84.9%
viability, T/C (second compound 0.1 µM, first compound 3.16 µM): 94.4%
viability, T/C (second compound 0.1 µM, first compound 10 µM): 76.4%
viability, T/C [9]: 68.4%
viability, T/C [10]: 86.6%
viability, T/C (second compound 0.316 µM, first compound 0.316 µM): 117%
viability, T/C (second compound 0.316 µM, first compound 1 µM): 97.7%
viability, T/C (second compound 0.316 µM, first compound 3.16 µM): 100%
viability, T/C (second compound 0.316 µM, first compound 10 µM): 95%
viability, T/C [11]: 80.7%
viability, T/C [12]: 84.9%
viability, T/C (second compound 1 µM, first compound 0.316 µM): 106%
viability, T/C (second compound 1 µM, first compound 1 µM): 99.3%
viability, T/C (second compound 1 µM, first compound 3.16 µM): 78.1%
viability, T/C (second compound 1 µM, first compound 10 µM): 95.3%
